Data on 32 compounds can be found in ChEMBL document CHEMBL1125625, “Antinociceptive (aminoalkyl)indoles” (J Med Chem, 1991).

The structures appear in SMILES notation.

Common to all, as to format: functional
Assay [1] concerns Mus musculus. The assay is described as follows: Acetylcholine writhing inhibitory activity for the compound was measured in mouse (in vivo) by peroral administration at 1000 uM. (Writhing tests count abdominal constrictions after an irritant is injected.)
The test system of assay [2] is Mus musculus. In words: Acetylcholine writhing inhibitory activity was measured in mouse (in vivo) by iv administration.
The test system of assay [3] is Mus musculus. The assay is described as follows: Acetylcholine writhing inhibitory activity for the compound was measured in vivo in mouse by peroral administration at 20 uM.
The subject of assay [4] is Mus musculus. The assay is described as follows: Acetylcholine writhing inhibitory activity measured in vivo in mouse by peroral administration. The conditions noted are these: po.
In assay [5] the test system is Mus musculus. In words: Acetylcholine writhing inhibitory activity for the compound was measured in mouse (in vivo) by iv administration at 30 uM.
The test system of assay [6] is Mus musculus. The assay is described as follows: Acetylcholine writhing inhibitory activity for the compound was measured in vivo in mouse by peroral administration at 238 uM.
For assay [7], the system named is Mus musculus. In words: Acetylcholine writhing inhibitory activity for the compound was measured in vivo in mouse by peroral administration at 300 uM.
Assay [8] has as its system Rattus norvegicus. The assay is described as follows: Acetic acid writhing inhibitory activity for the compound was measured in rat (in vivo) by peroral administration. The settings on record: po.
Assay [9] relates to Rattus norvegicus. In words: Intra arterial bradykinin activity for the compound was measured in rat (in vivo) by peroral administration.
The test system of assay [10] is Rattus norvegicus. The assay is described as follows: Adjuvant arthritis paw flexion activity for the compound was measured in rat (in vivo) by peroral administration. The conditions noted are these: po.
In assay [11] the test system is Mus musculus. In words: Acetylcholine writhing inhibitory activity for the compound was measured in vivo in mouse by peroral administration at 100 uM.
Assay [12] has as its system Rattus norvegicus. The assay is described as follows: Randall-Selitto activity for the compound was measured in rat (in vivo) by peroral administration. The conditions noted are these: po, read-out: MED.

Consider `Cc1c(C(=O)c2cccc3ccccc23)c2ccccc2n1CCN1CCOC(O)C1` (stereo unspecified), for which, in the assay on Mus musculus [1], the Inhibition is recorded as 50%. In the assay with Mus musculus [2], the ED50 came out at 9.7 mg/kg.

In turn, `Cc1cccc(C(=O)c2c(C)n(CCN3CCOCC3)c3ccccc23)c1` showed an Inhibition in the assay on Mus musculus [3] of 20%. Take `CSc1ccc(C(=O)c2c(C)n(CCN3CCOCC3)c3ccccc23)cc1`: the ED50 with Mus musculus [4] came to 22 mg/kg. In the assay with Mus musculus [4], `COc1ccc(C(=O)c2c(C)n(CCN3CCNCC3)c3ccccc23)cc1` returned an ED50 of 21 mg/kg. As for `O=C(c1cccc2ccccc12)c1cn(CCN2CCOCC2)c2ccccc12`, the ED50 in the assay on Mus musculus [4] stood at 23 mg/kg; in the assay on Mus musculus [2], 0.12 mg/kg. In the assay with Mus musculus [4], `COc1ccc(C(=O)c2c(C)n(CCN3CCCC(O)C3)c3ccccc23)cc1` (stereo unspecified) yielded an ED50 of 26 mg/kg. With `COc1ccc(C(=O)c2c(C)n(CCN(C)C)c3ccccc23)cc1`, it took a dose of 65 mg/kg to reach the 50% effect level in the assay with Mus musculus [4] (ED50).

`CC(C(=O)O)n1cc(C(=O)c2ccccc2F)c2ccccc21` (stereo unspecified) yielded an ED50 in the assay on Mus musculus [4] of 8 mg/kg.

Consider `Cc1c(C(=O)c2csc3ccccc23)c2ccccc2n1CCN1CCOCC1`, for which the Inhibition in the assay on Mus musculus [5] turned out to be 60%. `COc1ccc(C(=O)c2c(C)n(CCN3CCC(O)CC3)c3ccccc23)cc1` yielded an ED50 in the assay on Mus musculus [4] of 68 mg/kg. In the case of `Cc1c(C(=O)c2ccccc2F)c2ccccc2n1C(C)C(=O)O` (stereo unspecified), the ED50 in the assay on Mus musculus [4] was found to be 12 mg/kg. Take `CC(CN1CCOCC1)n1cc(C(=O)c2ccccc2F)c2ccccc21` (stereo unspecified): it took a dose of 19 mg/kg to reach the 50% effect level in the assay on Mus musculus [4] (ED50). In the assay with Mus musculus [6], `Cc1c(C(=O)c2ccc(F)cc2)c2ccccc2n1CCN1CCOCC1` had an Inhibition of 60%. Regarding `COc1ccc(C(=O)c2c(C)n(CCN3CCCCC3)c3ccccc23)cc1`, the Inhibition in the assay on Mus musculus [7] is reported as 71%. As for `Cc1c(C(=O)c2ccccc2F)c2ccccc2n1[C@H](C)CN1CCOCC1`, in the assay with Mus musculus [4], the ED50 stood at 9 mg/kg. Turning to `C[C@@H](C(=O)O)n1cc(C(=O)c2ccccc2F)c2ccccc21`, the ED50 in the assay with Mus musculus [2] was determined as 38 mg/kg. The compound `C[C@H](CN1CCOCC1)n1cc(C(=O)c2ccccc2F)c2ccccc21` had an ED50 in the assay on Mus musculus [4] of 11 mg/kg.

Take `C[C@H](C(=O)O)n1cc(C(=O)c2ccccc2F)c2ccccc21`: it took a dose of 5 mg/kg to reach the 50% effect level with Mus musculus [2] (ED50). In the case of `C[C@@H](CN1CCOCC1)n1cc(C(=O)c2ccccc2F)c2ccccc21`, it took a dose of 48 mg/kg to reach the 50% effect level in the assay with Mus musculus [4] (ED50). The same measure, in the same setting: then `CCNCCn1c(C)c(C(=O)c2ccc(OC)cc2)c2ccccc21`, with 46 mg/kg. In turn, `CCc1c(C(=O)c2ccc(OC)cc2)c2ccccc2n1CCN1CCOCC1` displayed an ED50 in the assay on Mus musculus [4] of 82 mg/kg.

`COc1ccc(C(=O)c2c(C)n(CCCCCCN3CCOCC3)c3ccccc23)cc1` registered an ED50 with Mus musculus [4] of 28 mg/kg.

On to `Cc1c(C(=O)c2cccc3ccccc23)c2ccccc2n1CCN1CCOCC1`, for which the ED50 in the assay on Rattus norvegicus [8] stood at 38 mg/kg; in the assay with Rattus norvegicus [9] it was 52 mg/kg; in the assay on Rattus norvegicus [10], 30 mg/kg; with Mus musculus [2], 0.19 mg/kg. For the compound `COc1ccc(C(=O)c2c(C)n(CC(=O)O)c3ccccc23)cc1`, the ED50 in the assay with Mus musculus [4] stood at 173 mg/kg. `CCN(CC)CCn1c(C)c(C(=O)c2ccc(OC)cc2)c2ccccc21` gave an ED50 with Mus musculus [4] of 50 mg/kg. Consider `Cc1c(C(=O)c2ccccc2F)c2ccccc2n1[C@@H](C)CN1CCOCC1`, for which, in the assay with Mus musculus [4], the ED50 was 37 mg/kg.

As for `Cc1c(C(=O)c2cccc(F)c2)c2ccccc2n1CCN1CCOCC1`, in the assay on Mus musculus [11], the Inhibition came to 30%. `COc1ccc(C(=O)c2c(C)n(CCCCCN3CCOCC3)c3ccccc23)cc1` returned an ED50 in the assay on Mus musculus [4] of 15 mg/kg. In the assay with Mus musculus [4], `Cc1c(C(=O)c2ccccc2F)c2ccccc2n1CCN1CCOCC1` displayed an ED50 of 79 mg/kg. In the assay with Mus musculus [4], `COc1ccc(C(=O)c2c(C)n(CCCCN3CCOCC3)c3ccccc23)cc1` gave an ED50 of 56 mg/kg. `O=C(c1ccccc1)c1ccc2n1CCC2C(=O)O` (stereo unspecified) [KETOROLAC] yielded an ED50 in the assay with Mus musculus [4] of 1.1 mg/kg.

As for `COc1ccc(C(=O)c2c(C)n(CCN3CCOCC3)c3ccccc23)cc1` [PRAVADOLINE], the ED50 in the assay on Mus musculus [4] came to 41 mg/kg; in the assay on Rattus norvegicus [8] it was 15 mg/kg; in the assay on Rattus norvegicus [9] it was 120 mg/kg; with Rattus norvegicus [10], 100 mg/kg. Further, the minimal effective dose in the assay with Rattus norvegicus [12] was 1 mg/kg.

For orientation: Inhibition means the change of the read-out against control, counted positive when it falls. A lower Inhibition goes with a response near the control. By ED50 is commonly meant the midpoint of the dose-response relation.
